Results: US20230098332A1, “HETEROCYCLIC DERIVATIVES AS TRMP8 ANTAGONISTS” (Givaudan SA, priority 2020, published 2023)

molecular target: T1, hTRPM8 (Homo sapiens, UniProt Q7Z2W7); assay: Assay on TRPM8 modulators: calcium imaging (Fluo-4, Flexstation) in HEK293 cell line stably expressing hTRPM8; format: cell-based; conditions: TRPM8 agonist activity, calcium influx, HEK293 stably expressing hTRPM8, sigmoidal dose-response fit
T1 construct: expressed in transfected cells
Outline: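 Calcium influx monitored by Fluo-4 (2.7 μM with […] probenecid, 1 h 37 °C loading) in HEK293 cells stably expressing hTRPM8, in HEPES buffer pH 7.4 with 2 mM CaCl2. Fluorescence read 15 s before and 105 s after adding serial compound dilutions. Maximal activation relative to solvent and 31.6 μM menthol; EC50 from sigmoidal fit.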

T1 sequence (Q7Z2W7 whole entry): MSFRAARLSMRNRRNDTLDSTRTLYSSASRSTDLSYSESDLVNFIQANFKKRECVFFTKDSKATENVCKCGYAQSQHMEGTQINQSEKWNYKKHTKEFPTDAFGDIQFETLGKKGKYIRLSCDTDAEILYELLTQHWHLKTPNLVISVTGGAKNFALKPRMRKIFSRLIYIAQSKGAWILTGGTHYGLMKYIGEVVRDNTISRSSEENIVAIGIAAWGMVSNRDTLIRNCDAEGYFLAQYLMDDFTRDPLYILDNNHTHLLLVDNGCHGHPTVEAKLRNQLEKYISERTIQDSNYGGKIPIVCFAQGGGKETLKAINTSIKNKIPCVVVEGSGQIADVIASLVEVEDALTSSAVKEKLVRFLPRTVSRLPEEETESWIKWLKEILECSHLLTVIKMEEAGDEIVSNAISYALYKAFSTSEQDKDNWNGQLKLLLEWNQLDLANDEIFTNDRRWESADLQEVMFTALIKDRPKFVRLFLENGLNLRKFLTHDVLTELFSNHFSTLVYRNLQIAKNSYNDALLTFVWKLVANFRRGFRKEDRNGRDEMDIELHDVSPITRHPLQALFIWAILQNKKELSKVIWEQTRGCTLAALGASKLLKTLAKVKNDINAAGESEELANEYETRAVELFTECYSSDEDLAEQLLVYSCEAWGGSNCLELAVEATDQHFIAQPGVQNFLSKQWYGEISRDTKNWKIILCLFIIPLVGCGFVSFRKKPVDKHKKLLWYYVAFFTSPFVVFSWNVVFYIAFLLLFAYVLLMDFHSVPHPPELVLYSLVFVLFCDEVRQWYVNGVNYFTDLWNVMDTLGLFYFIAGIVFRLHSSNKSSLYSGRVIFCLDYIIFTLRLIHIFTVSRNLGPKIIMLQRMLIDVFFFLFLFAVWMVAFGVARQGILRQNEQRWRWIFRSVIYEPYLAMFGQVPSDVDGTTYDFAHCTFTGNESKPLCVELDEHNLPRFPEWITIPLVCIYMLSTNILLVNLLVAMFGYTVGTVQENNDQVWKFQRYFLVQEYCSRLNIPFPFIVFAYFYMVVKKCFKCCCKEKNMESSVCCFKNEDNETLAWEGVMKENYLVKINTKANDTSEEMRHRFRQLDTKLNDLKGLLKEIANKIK

| SMILES | EC50 [nM] |
| --- | --- |
| Cc1cc(C)c(OCCN2CCOCC2)c(Cc2ccccc2C#N)c1 [compound 122, 2-(3,5-dimethyl-2-(2-morpholinoethoxy)benzyl)benzonitrile] | < 50 |
| Cc1cc(C)c(CCCN2CCOCC2)c(Oc2ccccc2C#N)c1 [compound 125, 2-(3,5-dimethyl-2-(3-morpholinopropyl)phenoxy)benzonitrile] | < 50 |
| Cc1cc(C)c(OCCN2CCOCC2)c(Cc2c(F)cccc2F)c1 [compound 149, 4-(2-(2-(2,6-difluorobenzyl)-4,6-dimethylphenoxy)ethyl)morpholine] | 50 to 300 |
| Cc1cc(C)c(OCCN2CCN(C)CC2)c(Cc2ccccc2C#N)c1.Cl [compound 118, 2-(3,5-dimethyl-2-(2-(4-methylpiperazin-1-yl)ethoxy)benzyl)benzonitrile hydrochloride] | < 50 |
| Cc1ccc(N(C)CCN2CCN(C)CC2)c(Cc2ccccc2)c1 [compound 137, 2-benzyl-N,4-dimethyl-N-(2-(4-methylpiperazin-1-yl)ethyl)aniline] | 50 to 300 |
| Cc1cc(C)c(OCCN2CCOCC2)c(Cc2ccccc2F)c1 [compound 153, 4-(2-(2-(2-fluorobenzyl)-4,6-dimethylphenoxy)ethyl)morpholine] | 50 to 300 |

system: trained group of panelists; assay: Sensory studies in model dentifrice (trained panelists, cooling in the mouth); format: in vivo, human; conditions: 100 ppm in model unflavored dentifrice, brushing with 1 g for 60 seconds
Method: The compounds listed in Table 3 were dissolved at a concentration of 1 wt-% in propylene glycol. These solutions were then dispersed in appropriate quantities to obtain the desired final concentration of 100 ppm (parts per million) of the test compound into a model, unflavored dentifrice, the formula of which is given below (ingredients obtained from the suppliers respectively indicated in parenthesis).
A trained group of panelists evaluated the dentifrice containing a compound of formula (I), by brushing their teeth with 1 g of the dentifrice using a toothbrush for 60 seconds, followed by spitting, without rinsing the mouth afterwards for the duration of the evaluation. Panelists evaluated and recorded the cooling performance as well as other sensorial and organoleptic attributes at different timepoints over a period of two hours. Cooling performance was rated on a scale from 0 to 10 with 0 being no effect and 10 being freezing. Scores were averaged for all panelists and the cooling intensity qualified as “N” for “none” (score of 0), “L” for “low” (score above 0, up to 1), “M” for “medium” (score above 1, up to 4), “S” for “strong” (score above 4, up to 8) and “E” for “extreme” (score above 8), which are summarized below in Table 3.

| SMILES | Time of max. cooling [min] |
| --- | --- |
| Cc1ccc(OCCN2CCN(C)CC2)c(Cc2ccccc2)c1.Cl [compound 85, 1-(2-(2-benzyl-4-methylphenoxy)ethyl)-4-methylpiperazine hydrochloride] | 20 |
| Cc1cc(C)c(OCCN2CCN(C)CC2)c(Cc2ccccc2)c1.Cl.Cl [compound 71, 1-(2-(2-benzyl-4,6-dimethylphenoxy)ethyl)-4-methylpiperazine dihydrochloride] | 10 |
| Cc1cc(C)c(OCCN2CCOCC2)c(Cc2ccccc2C#N)c1 [compound 122, 2-(3,5-dimethyl-2-(2-morpholinoethoxy)benzyl)benzonitrile] | 10 |
| Cc1cc(C)c(CCCN2CCOCC2)c(Oc2ccccc2C#N)c1 [compound 125, 2-(3,5-dimethyl-2-(3-morpholinopropyl)phenoxy)benzonitrile] | 30 |
| Cc1ccc(OCCN2CCN(C)CC2)c(Cc2ccccc2C#N)c1.Cl.Cl [compound 130, 2-(5-methyl-2-(2-(4-methylpiperazin-1-yl)ethoxy)benzyl)benzonitrile dihydrochloride] | 30 |
| Cc1cc(C)c(OCCN2CCOCC2)c(Cc2c(F)cccc2F)c1 [compound 149, 4-(2-(2-(2,6-difluorobenzyl)-4,6-dimethylphenoxy)ethyl)morpholine] | 30 |
| Cc1cc(C)c(OCCN2CCN(C)CC2)c(Cc2ccccc2C#N)c1.Cl [compound 118, 2-(3,5-dimethyl-2-(2-(4-methylpiperazin-1-yl)ethoxy)benzyl)benzonitrile hydrochloride] | 30 |
| Cc1ccc(N(C)CCN2CCN(C)CC2)c(Cc2ccccc2)c1 [compound 137, 2-benzyl-N,4-dimethyl-N-(2-(4-methylpiperazin-1-yl)ethyl)aniline] | 10 |
| Cc1cc(C)c(OCCN2CCOCC2)c(Cc2ccccc2F)c1 [compound 153, 4-(2-(2-(2-fluorobenzyl)-4,6-dimethylphenoxy)ethyl)morpholine] | 5 |

same assay, conditions: 100 ppm in model unflavored dentifrice, brushing with 1 g for 60 seconds, averaged panel score 0-10

| SMILES | Cooling after 1 hour | Max. cooling |
| --- | --- | --- |
| Cc1ccc(OCCN2CCN(C)CC2)c(Cc2ccccc2)c1.Cl [compound 85, 1-(2-(2-benzyl-4-methylphenoxy)ethyl)-4-methylpiperazine hydrochloride] | L (“L” for “low” (score above 0, up to 1)) | L (“L” for “low” (score above 0, up to 1)) |
| Cc1cc(C)c(OCCN2CCN(C)CC2)c(Cc2ccccc2)c1.Cl.Cl [compound 71, 1-(2-(2-benzyl-4,6-dimethylphenoxy)ethyl)-4-methylpiperazine dihydrochloride] | L (“L” for “low” (score above 0, up to 1)) | M (“M” for “medium” (score above 1, up to 4)) |
| Cc1cc(C)c(OCCN2CCOCC2)c(Cc2ccccc2C#N)c1 [compound 122, 2-(3,5-dimethyl-2-(2-morpholinoethoxy)benzyl)benzonitrile] | M (“M” for “medium” (score above 1, up to 4)) | S (“S” for “strong” (score above 4, up to 8)) |
| Cc1cc(C)c(CCCN2CCOCC2)c(Oc2ccccc2C#N)c1 [compound 125, 2-(3,5-dimethyl-2-(3-morpholinopropyl)phenoxy)benzonitrile] | M (“M” for “medium” (score above 1, up to 4)) | M (“M” for “medium” (score above 1, up to 4)) |
| Cc1ccc(OCCN2CCN(C)CC2)c(Cc2ccccc2C#N)c1.Cl.Cl [compound 130, 2-(5-methyl-2-(2-(4-methylpiperazin-1-yl)ethoxy)benzyl)benzonitrile dihydrochloride] | M (“M” for “medium” (score above 1, up to 4)) | M (“M” for “medium” (score above 1, up to 4)) |
| Cc1cc(C)c(OCCN2CCOCC2)c(Cc2c(F)cccc2F)c1 [compound 149, 4-(2-(2-(2,6-difluorobenzyl)-4,6-dimethylphenoxy)ethyl)morpholine] | M (“M” for “medium” (score above 1, up to 4)) | M (“M” for “medium” (score above 1, up to 4)) |
| Cc1cc(C)c(OCCN2CCN(C)CC2)c(Cc2ccccc2C#N)c1.Cl [compound 118, 2-(3,5-dimethyl-2-(2-(4-methylpiperazin-1-yl)ethoxy)benzyl)benzonitrile hydrochloride] | M (“M” for “medium” (score above 1, up to 4)) | M (“M” for “medium” (score above 1, up to 4)) |
| Cc1ccc(N(C)CCN2CCN(C)CC2)c(Cc2ccccc2)c1 [compound 137, 2-benzyl-N,4-dimethyl-N-(2-(4-methylpiperazin-1-yl)ethyl)aniline] | L (“L” for “low” (score above 0, up to 1)) | M (“M” for “medium” (score above 1, up to 4)) |
| Cc1cc(C)c(OCCN2CCOCC2)c(Cc2ccccc2F)c1 [compound 153, 4-(2-(2-(2-fluorobenzyl)-4,6-dimethylphenoxy)ethyl)morpholine] | L (“L” for “low” (score above 0, up to 1)) | M (“M” for “medium” (score above 1, up to 4)) |

system: trained group of panelists; assay: Sensory studies in aqueous solution (trained panelists, cooling in the mouth); format: in vivo, human; conditions: 40 ppm in aqueous solution, 20 mL swilled in the mouth for 60 seconds
Method: The compounds as listed below in Table 2 were dissolved at a concentration of 1 wt-% in propylene glycol. These solutions were then dispensed in appropriate quantities into deionized water containing 0.5 wt-% Poloxamer 407 (which is a hydrophilic non-ionic surfactant, e.g., commercially available from SigmaAldrich) and 0.25 wt-% Cremaphor® RH40 (obtained from BASF) as solubilizer, to obtain the desired final concentration of 40 ppm (parts per million) of the respective compound.
A trained group of panelists evaluated the aqueous solutions containing test compound by swilling 20 mL of the solution in the mouth for 60 seconds, followed by spitting, without rinsing the mouth afterwards for the duration of the evaluation. Panelists evaluated and recorded the cooling performance as well as other sensorial and organoleptic attributes at different timepoints over a period of two hours. Cooling performance was rated on a scale from 0 to 10 with 0 being no effect and 10 being freezing. Scores were averaged for all panelists and the cooling intensity qualified as “N” for “none” (score of 0), “L” for “low” (score above 0, up to 1), “M” for “medium” (score above 1, up to 4), “S” for “strong” (score above 4, up to 8) and “E” for “extreme” (score above 8), which are provided in Table 2.

| SMILES | Time of max. cooling [min] |
| --- | --- |
| Cc1ccc(OCCN2CCN(C)CC2)c(Cc2ccccc2)c1.Cl [compound 85, 1-(2-(2-benzyl-4-methylphenoxy)ethyl)-4-methylpiperazine hydrochloride] | 20 |
| Cc1cc(C)c(OCCN2CCN(C)CC2)c(Cc2ccccc2)c1.Cl.Cl [compound 71, 1-(2-(2-benzyl-4,6-dimethylphenoxy)ethyl)-4-methylpiperazine dihydrochloride] | 20 |
| Cc1cc(C)c(OCCN2CCOCC2)c(Cc2ccccc2C#N)c1 [compound 122, 2-(3,5-dimethyl-2-(2-morpholinoethoxy)benzyl)benzonitrile] | 10 |
| Cc1cc(C)c(CCCN2CCOCC2)c(Oc2ccccc2C#N)c1 [compound 125, 2-(3,5-dimethyl-2-(3-morpholinopropyl)phenoxy)benzonitrile] | 10 |
| Cc1ccc(OCCN2CCN(C)CC2)c(Cc2ccccc2C#N)c1.Cl.Cl [compound 130, 2-(5-methyl-2-(2-(4-methylpiperazin-1-yl)ethoxy)benzyl)benzonitrile dihydrochloride] | 30 |
| Cc1cc(C)c(OCCN2CCOCC2)c(Cc2c(F)cccc2F)c1 [compound 149, 4-(2-(2-(2,6-difluorobenzyl)-4,6-dimethylphenoxy)ethyl)morpholine] | 20 |
| Cc1cc(C)c(OCCN2CCN(C)CC2)c(Cc2ccccc2C#N)c1.Cl [compound 118, 2-(3,5-dimethyl-2-(2-(4-methylpiperazin-1-yl)ethoxy)benzyl)benzonitrile hydrochloride] | 20 |
| Cc1ccc(N(C)CCN2CCN(C)CC2)c(Cc2ccccc2)c1 [compound 137, 2-benzyl-N,4-dimethyl-N-(2-(4-methylpiperazin-1-yl)ethyl)aniline] | 10 |
| Cc1cc(C)c(OCCN2CCOCC2)c(Cc2ccccc2F)c1 [compound 153, 4-(2-(2-(2-fluorobenzyl)-4,6-dimethylphenoxy)ethyl)morpholine] | 20 |

same assay, conditions: 40 ppm in aqueous solution, 20 mL swilled in the mouth for 60 seconds, averaged panel score 0-10

| SMILES | Cooling after 1 hour | Max. cooling |
| --- | --- | --- |
| Cc1ccc(OCCN2CCN(C)CC2)c(Cc2ccccc2)c1.Cl [compound 85, 1-(2-(2-benzyl-4-methylphenoxy)ethyl)-4-methylpiperazine hydrochloride] | M (“M” for “medium” (score above 1, up to 4)) | S (“S” for “strong” (score above 4, up to 8)) |
| Cc1cc(C)c(OCCN2CCN(C)CC2)c(Cc2ccccc2)c1.Cl.Cl [compound 71, 1-(2-(2-benzyl-4,6-dimethylphenoxy)ethyl)-4-methylpiperazine dihydrochloride] | M (“M” for “medium” (score above 1, up to 4)) | S (“S” for “strong” (score above 4, up to 8)) |
| Cc1cc(C)c(OCCN2CCOCC2)c(Cc2ccccc2C#N)c1 [compound 122, 2-(3,5-dimethyl-2-(2-morpholinoethoxy)benzyl)benzonitrile] | M (“M” for “medium” (score above 1, up to 4)) | S (“S” for “strong” (score above 4, up to 8)) |
| Cc1cc(C)c(CCCN2CCOCC2)c(Oc2ccccc2C#N)c1 [compound 125, 2-(3,5-dimethyl-2-(3-morpholinopropyl)phenoxy)benzonitrile] | M (“M” for “medium” (score above 1, up to 4)) | M (“M” for “medium” (score above 1, up to 4)) |
| Cc1ccc(OCCN2CCN(C)CC2)c(Cc2ccccc2C#N)c1.Cl.Cl [compound 130, 2-(5-methyl-2-(2-(4-methylpiperazin-1-yl)ethoxy)benzyl)benzonitrile dihydrochloride] | S (“S” for “strong” (score above 4, up to 8)) | S (“S” for “strong” (score above 4, up to 8)) |
| Cc1cc(C)c(OCCN2CCOCC2)c(Cc2c(F)cccc2F)c1 [compound 149, 4-(2-(2-(2,6-difluorobenzyl)-4,6-dimethylphenoxy)ethyl)morpholine] | M (“M” for “medium” (score above 1, up to 4)) | S (“S” for “strong” (score above 4, up to 8)) |
| Cc1cc(C)c(OCCN2CCN(C)CC2)c(Cc2ccccc2C#N)c1.Cl [compound 118, 2-(3,5-dimethyl-2-(2-(4-methylpiperazin-1-yl)ethoxy)benzyl)benzonitrile hydrochloride] | S (“S” for “strong” (score above 4, up to 8)) | S (“S” for “strong” (score above 4, up to 8)) |
| Cc1ccc(N(C)CCN2CCN(C)CC2)c(Cc2ccccc2)c1 [compound 137, 2-benzyl-N,4-dimethyl-N-(2-(4-methylpiperazin-1-yl)ethyl)aniline] | M (“M” for “medium” (score above 1, up to 4)) | S (“S” for “strong” (score above 4, up to 8)) |
| Cc1cc(C)c(OCCN2CCOCC2)c(Cc2ccccc2F)c1 [compound 153, 4-(2-(2-(2-fluorobenzyl)-4,6-dimethylphenoxy)ethyl)morpholine] | M (“M” for “medium” (score above 1, up to 4)) | M (“M” for “medium” (score above 1, up to 4)) |
